Legend:
[1] = cited from earlier work
[2] = in vivo; cited from earlier work
[3] = Biodistribution of isomers and racemic mixture of labeled 3-methylheptadecanoic acid in rats; assay type: in vivo; details: rat
Procedure: The following data compare the biodistribution of 1-[^11C]-3(S)-methylheptadecanoic acid (the ‘S’ isomer) and I-[^11C]-3(R)-methylheptadecanoic acid (the ‘R’ isomer). Also compared is the racemic mixture, 1-[^14C]-3(R,S)-methylheptadecanoic acid, labeled with ^14C. […] Biodistribution was performed in six rats for each compound and time point. The 5-minute distribution data are contained in Table 5, while the 30-minute data are contained in Table 6. These unexpected results imply that during β-oxidation, enoyl-CoA hydratase is stereo-specific and only recognizes the ‘S’ isomer. Further, stereoisomeric purity is important for targeting the MFA to heart tissue.

[4] = PET heart imaging in monkey after intravenous [^18F]-FCPHA; assay type: in vivo
Procedure: (§1) In FIG. 6, the images are a comparison of [^13N]ammonia (right) and [^18F]FCPHA (left) at 2-8 minutes in a pig.
(§2) The biodistribution of [^18F]-FCPHA was also studied in monkeys.

[5] = Biodistribution of [^18F]-FCPHA in rats (organs excised, gamma counter); assay type: in vivo, Sprague-Dawley rats
[6] = as above; assay type: in vivo, Sprague-Dawley rats; details: rat
Procedure: Male Sprague-Dawley rats weighing approximately 300-350 grams, were injected without anesthesia with 40 µCi of [^18F]-FCPHA in a total volume of 200 µl. The radiolabeled FA was injected into the tail vein and the rats subsequently sacrificed at 5 minutes and 60 minutes post-injection. The organs were excised and counted in a gamma counter. Accumulation of the FA in various organs in % DPG (dose per gram) is detailed in Table 1.
Bone accumulation of the fluorinated FA measured de-fluorination of the compound and its subsequent accumulation. To confirm imaging resolution, the following ratios were determined at 5 and 60 minutes post-injection (Table 2).

[7] = Heart imaging in pig after intravenous [^18F]FCPHA; assay type: in vivo
Procedure: as §1, §2

[8] = normal myocardium, biexponential clearance

## O=C(O)CCCCCCCCCCCCCCc1ccc(I)cc1 [IPPA, 15-(p-iodophenyl)pentadecanoic acid]
[1]; in vivo
  Blood clearance t½ (elimination): 5 min
[1]; [8]
  Myocardial clearance, fast component t½ (flow): 3.5 min
  Myocardial clearance, slow component t½ (metabolism): 130 min

## CC(C)(CCCCCCCCCCCCc1ccc(I)cc1)CC(=O)O [DMIPP]
[2]
  Myocardial clearance: 6 to 7 h

## CCCCCCCCCCCCCC[C@H](C)C[11C](=O)O (single isomer, unassigned; isomer 1) [S-isomer]
[3]; 5 minutes post-injection
  Biodistribution, Blood: 0.18 ± 0.01 % DPE
  Biodistribution, Heart: 3.44 ± 0.54 % DPE
  Biodistribution, Left Ventricle: 4.05 ± 0.77 % DPE
  Biodistribution, Right Ventricle: 3.40 ± 0.82 % DPE
  Heart-to-blood: 19.00
  Left ventricle-to-blood: 22.00
  Right ventricle-to-blood: 18.88
[3]; 30 minutes post-injection
  Biodistribution, Blood: 0.21 ± 0.04 % DPE
  Biodistribution, Heart: 3.08 ± 0.30 % DPE
  Biodistribution, Left Ventricle: 3.81 ± 0.37 % DPE
  Biodistribution, Right Ventricle: 2.82 ± 0.46 % DPE
  Heart-to-blood: 14.66
  Left ventricle-to-blood: 18.14
  Right ventricle-to-blood: 18.88

## CCCCCCCCCCCCCC[C@@H](C)C[11C](=O)O (single isomer, unassigned; isomer i) [R-isomer]
[3]; 5 minutes post-injection
  Biodistribution, Blood: 0.30 ± 0.04 % DPE
  Biodistribution, Heart: 1.40 ± 0.23 % DPE
  Biodistribution, Left Ventricle: 1.50 ± 0.50 % DPE
  Biodistribution, Right Ventricle: 0.94 ± 0.46 % DPE
  Heart-to-blood: 4.66
  Left ventricle-to-blood: 5.00
  Right ventricle-to-blood: 3.13
[3]; 30 minutes post-injection
  Biodistribution, Blood: 0.23 ± 0.03 % DPE
  Biodistribution, Heart: 1.07 ± 0.16 % DPE
  Biodistribution, Left Ventricle: 1.33 ± 0.25 % DPE
  Biodistribution, Right Ventricle: 0.93 ± 0.35 % DPE
  Heart-to-blood: 5.95
  Left ventricle-to-blood: 5.78
  Right ventricle-to-blood: 4.00

## CCCCCCCCCCCCCCC(C)C[14C](=O)O (racemic) [R,S racemic mixture, 1-[^14C]-3(R,S)-methylheptadecanoic acid]
[3]; 5 minutes post-injection
  Biodistribution, Blood: 0.23 ± 0.02 % DPE
  Biodistribution, Heart: 2.20 ± 0.95 % DPE
  Biodistribution, Left Ventricle: 2.87 ± 1.01 % DPE
  Biodistribution, Right Ventricle: 2.05 ± 0.54 % DPE
  Heart-to-blood: 9.56
  Left ventricle-to-blood: 12.48
  Right ventricle-to-blood: 8.90
[3]; 30 minutes post-injection
  Biodistribution, Blood: 0.20 ± 0.02 % DPE
  Biodistribution, Heart: 2.10 ± 0.41 % DPE
  Biodistribution, Left Ventricle: 2.81 ± 0.35 % DPE
  Biodistribution, Right Ventricle: 2.10 ± 0.41 % DPE
  Heart-to-blood: 10.10
  Left ventricle-to-blood: 12.48
  Right ventricle-to-blood: 10.05

## CCCCCCCCC([18F])CCCCC1CC1CC(=O)O (stereo not drawn) [[^18F]-FCPHA, [^18F]-9-fluoro-3,4-cyclopropyl-heptadecanoic acid]
[4]; monkey
  Blood activity clearance: fast clearance
[4]; monkey heart, after injection (FIG. 3)
  Heart activity as a function of time: initial spike of activity corresponding to blood flow followed by a plateau after 10 minutes
[4]; monkey, sixty minutes after intravenous injection of 5 mCi
  Myocardial trapping visualized by PET: myocardial trapping in both left and right ventricles
[5]
  Subcellular distribution in the rat heart: found in the mitochondria
[6]; 5 min post-injection
  Accumulation in Adrenal: 0.22 ± 0.061 % DPG
  Accumulation in Blood: 0.064 ± 0.008 % DPG
  Accumulation in Bone: 0.16 ± 0.03 % DPG
  Accumulation in Brain: 0.06 ± 0.01 % DPG
  Accumulation in Gastrointestinal Tract: 0.19 ± 0.040 % DPG
  Accumulation in Kidney: 0.41 ± 0.097 % DPG
  Accumulation in Liver: 1.34 ± 0.26 % DPG
  Accumulation in Lung: 0.47 ± 0.12 % DPG
  Accumulation in Muscle: 0.25 ± 0.009 % DPG
  Accumulation in Spleen: 0.55 ± 0.30 % DPG
  Accumulation in Stomach: 0.12 ± 0.067 % DPG
  Accumulation in Testes: 0.020 ± 0.003 % DPG
[6]; 5 min post-injection, tail vein
  Accumulation in Heart: 1.55 ± 0.66 % DPG
[6]; 60 min post-injection
  Accumulation in Adrenal: 0.30 ± 0.16 5 DPG
  Accumulation in Blood: 0.080 ± 0.019 5 DPG
  Accumulation in Bone: 0.70 ± 0.39 5 DPG
  Accumulation in Brain: 0.05 ± 0.02 5 DPG
  Accumulation in Gastrointestinal Tract: 0.24 ± 0.039 5 DPG
  Accumulation in Heart: 1.43 ± 0.14 5 DPG
  Accumulation in Kidney: 0.34 ± 0.08 5 DPG
  Accumulation in Liver: 0.87 ± 0.15 5 DPG
  Accumulation in Lung: 0.33 ± 0.16 5 DPG
  Accumulation in Muscle: 0.097 ± 0.075 5 DPG
  Accumulation in Spleen: 0.34 ± 0.085 5 DPG
  Accumulation in Stomach: 0.15 ± 0.038 5 DPG
  Accumulation in Testes: 0.011 ± 0.004 5 DPG
[6]; at 5 minutes post-injection
  Heart-to-blood ratio: 25.8
  Heart-to-lung ratio: 3.3
[6]; at 60 minutes post-injection
  Heart-to-blood ratio: 20.4
  Heart-to-lung ratio: 4.6
[7]; late images at 60 minutes
  Myocardial activity retention in late images: high myocardial activity retention
[7]; pig
  Blood activity clearance: fast clearance
[7]; pig heart, after injection
  Heart activity as a function of time: initial spike of activity corresponding to blood flow followed by a plateau after 10 minutes

## CC(CCCCCCCCCCCCc1ccc(I)cc1)CC(=O)O (racemic) [BMIPP, 15-(p-iodophenyl)-3-(R,S)-methyl-pentadecanoic acid]
[2]
  Myocardial retention: 30 to 45 min

— patent US8871179B2, “Method for monitoring blood flow and metabolic uptake in tissue with radiolabeled alkanoic acid” (The General Hospital Corporation, priority 2003, dated 2014)
